According to the NIST ThermoML archive (doi:10.1016/j.fluid.2007.09.028):

Test: xn = mol fraction of the nth substance listed
Conditions: 101 kPa, Liquid

Clc1ccccc1 [chlorobenzene] + CCC(C)O
mass density [kg/m3]
Conditions	288.15 K	293.15 K	298.15 K	303.15 K	308.15 K	313.15 K
x2 = 0	1111.81	1106.43	1101.04	1095.64	1090.23	1084.82
x2 = 0.0496	1097.45	1092.02	1086.59	1081.16	1075.72	1070.28
x2 = 0.1003	1083.13	1077.7	1072.25	1066.79	1061.32	1055.83
x2 = 0.1501	1069.16	1063.74	1058.31	1052.85	1047.37	1041.88
x2 = 0.2	1055.05	1049.66	1044.24	1038.8	1033.33	1027.86
x2 = 0.2502	1040.78	1035.43	1030.05	1024.63	1019.19	1013.73
x2 = 0.3007	1026.39	1021.07	1015.73	1010.35	1004.94	999.501
x2 = 0.3497	1012.26	1006.99	1001.69	996.346	990.966	985.56
x2 = 0.3999	997.723	992.501	987.245	981.952	976.612	971.251
x2 = 0.4499	983.091	977.922	972.717	967.468	962.174	956.834
x2 = 0.5	968.364	963.258	958.109	952.917	947.675	942.399
x2 = 0.5498	953.525	948.484	943.398	938.263	933.079	927.858
x2 = 0.5999	938.418	933.448	928.431	923.362	918.237	913.072
x2 = 0.6499	923.235	918.341	913.397	908.397	903.335	898.213
x2 = 0.7	907.848	903.04	898.18	893.259	888.276	883.238
x2 = 0.75	892.266	887.557	882.791	877.959	873.061	868.109
x2 = 0.8	876.537	871.933	867.265	862.532	857.722	852.839
x2 = 0.8498	860.576	856.092	851.542	846.918	842.221	837.46
x2 = 0.8997	844.324	839.965	835.544	831.044	826.464	821.827
x2 = 0.9502	827.634	823.427	819.146	814.788	810.337	805.821

Clc1ccccc1 [chlorobenzene] + CCCCCO
mass density [kg/m3]
Conditions	288.15 K	293.15 K	298.15 K	303.15 K	308.15 K	313.15 K
x2 = 0	1111.81	1106.43	1101.04	1095.64	1090.23	1084.82
x2 = 0.0495	1096.2	1090.85	1085.48	1080.11	1074.71	1069.32
x2 = 0.1004	1080.5	1075.21	1069.9	1064.57	1059.22	1053.86
x2 = 0.1503	1065.26	1060.04	1054.8	1049.54	1044.25	1038.95
x2 = 0.2001	1050.21	1045.07	1039.9	1034.71	1029.5	1024.27
x2 = 0.2498	1035.28	1030.21	1025.13	1020.02	1014.88	1009.72
x2 = 0.2998	1020.4	1015.41	1010.4	1005.37	1000.32	995.245
x2 = 0.3497	1005.6	1000.69	995.77	990.822	985.847	980.857
x2 = 0.3992	991.011	986.186	981.346	976.483	971.589	966.679
x2 = 0.4498	976.171	971.436	966.685	961.906	957.097	952.274
x2 = 0.5	961.565	956.92	952.254	947.565	942.839	938.086
x2 = 0.5497	947.132	942.578	938.003	933.402	928.768	924.119
x2 = 0.6	932.622	928.159	923.676	919.168	914.627	910.077
x2 = 0.65	918.243	913.875	909.486	905.07	900.622	896.149
x2 = 0.6998	903.925	899.658	895.367	891.05	886.702	882.307
x2 = 0.7499	889.607	885.436	881.246	877.028	872.777	868.496
x2 = 0.8001	875.288	871.223	867.134	863.017	858.866	854.684
x2 = 0.8496	861.143	857.181	853.196	849.186	845.143	841.079
x2 = 0.9002	846.722	842.865	838.986	835.082	831.149	827.194
x2 = 0.95	832.515	828.762	824.99	821.195	817.369	813.521

Clc1ccccc1 [chlorobenzene] + CCCCO
mass density [kg/m3]
Conditions	288.15 K	293.15 K	298.15 K	303.15 K	308.15 K	313.15 K
x2 = 0	1111.81	1106.43	1101.04	1095.64	1090.23	1084.82
x2 = 0.0491	1098.36	1092.97	1087.57	1082.16	1076.75	1071.34
x2 = 0.1013	1084.16	1078.81	1073.45	1068.07	1062.67	–
x2 = 0.1492	1071.13	1065.83	1060.5	1055.16	1049.8	1044.42
x2 = 0.2004	1057.1	1051.85	1046.57	1041.28	1035.97	1030.63
x2 = 0.2501	1043.32	1038.12	1032.91	1027.68	1022.42	1017.14
x2 = 0.3	1029.41	1024.28	1019.13	1013.96	1008.76	1003.55
x2 = 0.3507	1015.11	1010.04	1004.96	999.858	994.721	989.562
x2 = 0.4	1001.06	996.06	991.039	985.993	980.92	975.825
x2 = 0.4502	986.537	981.622	976.686	971.72	966.72	961.715
x2 = 0.5	972.013	967.172	962.314	957.429	952.506	947.561
x2 = 0.5499	957.246	952.491	947.717	942.914	938.072	933.199
x2 = 0.5998	942.296	937.639	932.95	928.23	923.477	918.689
x2 = 0.6504	926.891	922.329	917.738	913.116	908.455	903.772
x2 = 0.7002	911.543	907.078	902.582	898.054	893.49	888.906
x2 = 0.749	896.297	891.927	887.529	883.097	878.634	874.13
x2 = 0.7995	880.209	875.948	871.658	867.339	862.977	858.585
x2 = 0.849	864.175	860.018	855.838	851.632	847.387	843.125
x2 = 0.9006	847.199	843.162	839.105	835.018	830.894	826.737
x2 = 0.9505	830.398	826.483	822.545	818.578	814.579	810.547
